Where only a bound is given, the exact number is not on record here.

The target in this experiment is T1, N-terminally GST-tagged DLK (catalytic domain amino acid 1-520) (Homo sapiens, UniProt Q12852).
T1 construct: N-terminally GST-tagged DLK (catalytic domain amino acid 1-520); purchased Carna Bioscience
T1 sequence (Q12852 1-520): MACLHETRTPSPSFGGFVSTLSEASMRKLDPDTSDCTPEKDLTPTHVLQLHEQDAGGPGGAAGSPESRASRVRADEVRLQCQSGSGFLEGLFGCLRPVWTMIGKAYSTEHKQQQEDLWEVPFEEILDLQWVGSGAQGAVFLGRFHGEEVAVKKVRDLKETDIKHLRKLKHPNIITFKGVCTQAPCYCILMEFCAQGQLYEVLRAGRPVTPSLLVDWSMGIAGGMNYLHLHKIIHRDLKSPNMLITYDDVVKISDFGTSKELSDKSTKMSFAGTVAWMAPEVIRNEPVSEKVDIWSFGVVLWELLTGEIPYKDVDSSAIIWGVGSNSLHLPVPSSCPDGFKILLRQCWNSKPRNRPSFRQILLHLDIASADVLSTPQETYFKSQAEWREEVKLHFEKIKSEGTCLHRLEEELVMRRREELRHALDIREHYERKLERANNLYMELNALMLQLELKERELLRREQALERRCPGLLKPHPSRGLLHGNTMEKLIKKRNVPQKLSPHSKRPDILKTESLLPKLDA
In words: DLK TR-FRET inhibition assay. The experiment is classed as biochemical. The following applies: 5 nM GST-DLK, 40 nM HIS-MKK4 K131M substrate, 30 μM ATP, 60 minutes at ambient temperature. The method in brief:
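5 nM GST-DLK (aa 1-520), 40 nM HIS-MKK4 K131M and 30 μM ATP reacted 60 min at ambient temperature in HEPES pH 7.5 buffer with 10 mM MgCl2, compound 1:3 serially diluted from 20 uM. TR-FRET detection of phospho-MKK4 used Eu-cryptate anti-phospho-MKK4 plus D2 anti-HIS, read after 3 h (665/615 nm).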
On to `CC(C)n1nc(-c2cnc(N)c(OC(F)F)c2)cc1[C@H]1[C@@H]2CC(=O)C[C@@H]21` [compound 85, (1R,5S,6r)-6-(3-(6-amino-5-(difluoro-methoxy)pyridin-3-yl)-1-isopropyl-1H-pyrazol-5-yl)bicyclo [3.1.0]hexan-3-one], for which the Ki was determined as 47.8 nM.
Take `CC(C)n1nc(-c2cnc(N)c(OC(F)(F)F)c2)cc1[C@H]1[C@@H]2C[C@H](N3CC(F)(F)C3)C[C@@H]21` [compound 53, 5-(5-((1R,3r,5S,6r)-3-(3,3-difluoro-azetidin-1-yl)bicyclo[3.1.0]hexan-6-yl)-1-isopropyl-1H-pyrazol-3-yl)-3-(trifluoromethoxy) pyridin-2-amine]: affinity was put at a Ki of 4.72 nM.
On to `CC(C)n1nc(-c2cnc(N)c(C(=O)N3CCCC3)c2)cc1[C@H]1[C@@H]2C[C@@H](N3CC(F)C3)C[C@@H]21` [compound 106, (2-amino-5-(5-((1R,3s,5S,6r)-3-(3-fluoroazetidin-1-yl)bicyclo [3.1.0]hexan-6-yl)-1-isopropyl-1H-pyrazol-3-yl)pyridin-3-yl) (pyrrolidin-1-yl)methanone], for which the Ki was over 321 nM.
`COCCN1CC2(C[C@@H]3[C@H](C2)[C@H]3c2cc(-c3cnc(N)c(C(F)(F)F)c3)nn2C(C)C)C1` [compound 141, 5-(1-isopropyl-5-((1′R,5′S,6′r)-1-(2-methoxyethyl)spiro[azetidine-3,3′-bicyclo[3.1.0]hexan]-6′-yl)-1H-pyrazol-3-yl)-3-(trifluoromethyl)pyridin-2-amine] had an inhibition constant Ki of 8.52 nM.
`CC(C)n1nc(-c2cnc(N)c(OC(F)F)c2)cc1[C@H]1[C@@H]2C[C@@H](NCC(F)F)C[C@@H]21` [compound 255, 5-(5-((1R,3s,5S,6r)-3-((2,2-difluoroethyl)amino)bicyclo[3.1.0]hexan-6-yl)-1-isopropyl-1H-pyrazol-3-yl)-3-(difluoromethoxy) pyridin-2-amine] showed a Ki of 1.5 nM.
Regarding `CC(C)n1nc(-c2cnc(N)c(C(F)(F)F)c2)cc1[C@H]1[C@@H]2C[C@H](N3CCOC[C@H]3C)C[C@@H]21` [compound 46, 5-(1-isopropyl-5-((1R,3s,5S,6R)-3-((R)-3-methylmorpholino)bicyclo[3.1.0]hexan-6-yl)-1H-pyrazol-3-yl)-3-(trifluoromethyl) pyridin-2-amine], the affinity, expressed as Ki, was 1.85 nM.
`Nc1ncc(-c2cc([C@H]3[C@@H]4C[C@H](N5CCOCC5)C[C@@H]43)n(CC3CCC3)n2)cc1OC(F)F` [compound 127, 5-(1-(cyclobutylmethyl)-5-((1R, 3r,5S,6r)-3-morpholinobicyclo [3.1.0]hexan-6-yl)-1H-pyrazol-3-yl)-3-(difluoromethoxy)pyridin-2-amine] yielded a Ki of 3.55 nM.
The result for `CC(C)n1nc(-c2cnc(N)c(C(F)(F)F)c2)cc1[C@H]1[C@@H]2C[C@H](N3CCOC[C@@H]3C)C[C@@H]21` [compound 98, 5-(1-isopropyl-5-((1R,3r,5S,6S)-3-((S)-3-methylmorpholino)bicyclo[3.1.0]hexan-6-yl)-1H-pyrazol-3-yl)-3-(trifluoromethyl) pyridin-2-amine] reads 4.89 nM; that for `CC(C)n1nc(-c2cnc(N)c(C(F)(F)F)c2)cc1[C@H]1[C@@H]2CC(N3CCN4CCOCC4C3)C[C@@H]21` (single isomer, unassigned) [compound 184], 2.1 nM.
With `CC(C)n1nc(-c2cnc(N)c(C(F)(F)F)c2)cc1[C@H]1[C@@H]2C[C@@H](NCC(F)F)C[C@@H]21` [compound 254, 5-(5-((1R,3s,5S,6r)-3-((2,2-difluoroethyl)amino)bicyclo[3.1.0]hexan-6-yl)-1-isopropyl-1H-pyrazol-3-yl)-3-(trifluoromethyl) pyridin-2-amine] the figure was 2.4 nM; with `CC(C)n1nc(-c2cnc(N)c(OC(F)(F)F)c2)cc1[C@H]1[C@@H]2C[C@@H](N3CCCOCC3)C[C@@H]21` [compound 99, 5-(5-((1R,3s,5S,6r)-3-(1,4-oxazepan-4-yl)bicyclo[3.1.0]hexan-6-yl)-1-isopropyl-1H-pyrazol-3-yl)-3-(trifluoromethoxy)pyridin-2-amine], 1.16 nM; with `CC(C)n1nc(-c2cnc(N)c(C(F)(F)F)c2)cc1[C@H]1[C@@H]2C[C@@H](N(C)CCS(C)(=O)=O)C[C@@H]21` [compound 7, 5-(1-isopropyl-5-((1R,3s,5S,6r)-3-(methyl(2-(methylsulfonyl)ethyl)amino)bicyclo[3.1.0]hexan-6-yl)-1H-pyrazol-3-yl)-3-(trifluoromethyl)pyridin-2-amine], 4.63 nM.
`CC(C)n1nc(-c2cnc(N)c(C(F)(F)F)c2)cc1[C@H]1[C@@H]2C[C@H](n3ccnc3)C[C@@H]21` [compound 115, 5-(5-((1R,3r,5S,6r)-3-(1H-imidazol-1-yl)bicyclo[3.1.0]hexan-6-yl)-1-isopropyl-1H-pyrazol-3-yl)-3-(trifluoromethyl)pyridin-2-amine] registered a Ki of 9.19 nM.
The result for `CC(C)n1nc(-c2cnc(N)c(OC(F)(F)F)c2)cc1[C@H]1[C@@H]2C[C@H](NCC(F)F)C[C@@H]21` [compound 282, 5-(5-((1R,3r,5S,6r)-3-((2,2-difluoroethyl)amino)bicyclo[3.1.0]hexan-6-yl)-1-isopropyl-1H-pyrazol-3-yl)-3-(trifluoromethoxy) pyridin-2-amine] reads 7.7 nM.
Regarding `CC(C)n1nc(-c2cnc(N)c(OC(F)(F)F)c2)cc1[C@H]1[C@@H]2C[C@@H](N3CC(F)C3)C[C@@H]21` [compound 28, 5-(5-((1R,3s,5S,6r)-3-(3-fluoro-azetidin-1-yl)bicyclo[3.1.0]hexan-6-yl)-1-isopropyl-1H-pyrazol-3-yl)-3-(trifluoromethoxy) pyridin-2-amine], the Ki was found to be 2.54 nM.
As for `CC(C)n1nc(-c2cnc(N)c(OC(F)F)c2)cc1[C@H]1[C@@H]2C[C@@H](OC3COC3)C[C@@H]21` [compound 231, 3-(difluoromethoxy)-5-(1-iso-propyl-5-((1R,3s,5S,6r)-3-(oxetan-3-yloxy)bicyclo[3.1.0]hexan-6-yl)-1H-pyrazol-3-yl)pyridin-2-amine], the Ki was 5.5 nM.
`CC(C)n1nc(-c2cnc3cnn([C@H](C)c4ccccn4)c3c2)cc1[C@H]1[C@@H]2C[C@@H](N3CCOCC3)C[C@@H]21` [compound 31, 4-((1R,3S,5S,6r)-6-(1-isopropyl-3-(1-((R)-1-(pyridin-2-yl)ethyl)-1H-pyrazolo[4,3-b]pyridin-6-yl)-1H-pyrazol-5-yl)bicyclo[3.1.0]hexan-3-yl)morpholine] yielded a Ki of 79.4 nM.
`COC1CN([C@H]2C[C@@H]3[C@H](C2)[C@H]3c2cc(-c3cnc(N)c(OC(F)(F)F)c3)nn2C(C)C)C1` [compound 39, 5-(1-isopropyl-5-((1R,3r,5S,6r)-3-(3-methoxyazetidin-1-yl)bicyclo[3.1.0]hexan-6-yl)-1H-pyrazol-3-yl)-3-(trifluoromethoxy) pyridin-2-amine] gave a Ki of 2.06 nM.
The result for `Nc1ncc(-c2cc([C@H]3[C@@H]4C[C@H](N5CCOCC5)C[C@@H]43)n(CC3CC3)n2)cc1OC(F)F` [compound 274, 5-(1-(cyclopropylmethyl)-5-((1R,3r,5S,6r)-3-morpholinobicyclo [3.1.0]hexan-6-yl)-1H-pyrazol-3-yl)-3-(difluoromethoxy)pyridin-2-amine] reads 1.3 nM; that for `CC(C)n1nc(-c2cnc(N)c(C(F)(F)F)c2)cc1[C@H]1[C@@H]2C[C@@]3(CCN3CC(F)F)C[C@@H]21` [compound 148, 5-(5-((1′R,2r,5′S,6′r)-1-(2,2-difluoro-ethyl)spiro[azetidine-2,3′-bicyclo[3.1.0]hexan]-6-yl)-1-isopropyl-1H-pyrazol-3-yl)-3-(trifluoro-methyl)pyridin-2-amine], 8.9 nM; that for `CO[C@H]1CCN([C@H]2C[C@@H]3[C@H](C2)[C@H]3c2cc(-c3cnc(N)c(C(F)(F)F)c3)nn2CC(F)F)C1` [compound 145, 5-(1-(2,2-difluoroethyl)-5-((1R,3r,5S,6S)-3-((S)-3-methoxypyrrolidin-1-yl)bicyclo[3.1.0]hexan-6-yl)-1H-pyrazol-3-yl)-3-(trifluoro-methyl)pyridin-2-amine], 3.3 nM.
With `CC(C)n1nc(-c2cnc(N)c(OC(F)F)c2)cc1[C@H]1[C@@H]2C[C@H](N3CCO[C@@H](C)C3)C[C@@H]21` [compound 78, 3-(difluoromethoxy)-5-(1-isopropyl-5-((1R,3r,5S,6S)-3-((S)-2-methylmorpholino)bicyclo[3.1.0]hexan-6-yl)-1H-pyrazol-3-yl) pyridin-2-amine], the Ki was found to be 0.52 nM.
`CC(C)n1nc(-c2cnc(N)c(OC(F)(F)F)c2)cc1[C@H]1[C@@H]2C[C@@]3(CCN3CC(F)F)C[C@@H]21` [compound 147, 5-(5-((1′R,2r,5′S,6′r)-1-(2,2-difluoro-ethyl)spiro[azetidine-2,3′-bicyclo[3.1.0]hexan]-6′-yl)-1-isopropyl-1H-pyrazol-3-yl)-3-(trifluoro-methoxy)pyridin-2-amine] registered a Ki of 5.7 nM.

For the origin of these results see patent US9365583B2, “Substituted pyrazoles and uses thereof” (Genentech, Inc., priority 2013, dated 2016).
